Measured values: the supplement of paper PMC8671470

Test system: myeloid leukemia patient primary cells Pat.12
Assay: cell viability (% survival relative to DMSO control); higher = less cytotoxic
Details: 1 nM; 72 h
In short: (§1)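 Thawed mononuclear cells from AML or CML patients were purified on Ficoll and cultured for 72 h in RPMI 1640 with 10% FBS, at 10,000 cells/well, on 384-well plates carrying 70 pre-printed compounds at 1–10,000 nM in five tenfold steps, in duplicate. Viability came from CellTiter-Glo, normalised against DMSO and against 10 μM proteasome inhibitor. Any area under the curve given was derived from log-logistic curve fits in the drc and PharmacoGx R packages, and these fits had four parameters.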

| SMILES | cell viability |
| --- | --- |
| CCC(CC#N)OC(=O)N[C@@H](C)c1cccc(NC(=O)Nc2ccc(-c3cnco3)c(OC)c2)c1 (stereo in doubt) [AVN-944] | 98.7% |
| Oc1ncc(F)c(O)n1 [5-fluorouracil] | 94.2% |
| CN(C)CCNC(=O)c1cccn2c(=O)c3cc4ccccc4cc3nc12 [Bmh-21] | 94.1% |

Same assay, conditions: 10 nM; 72 h

| SMILES | cell viability |
| --- | --- |
| O=C(c1c2ccccc2cc2ccccc12)N1CCC(N2CCC[C@@H](C(=O)N3CCOCC3)C2)CC1 | 92% |
| c1ccc2c(c1)SCc1c-2[nH]c2ccccc12 | 96.2% |
| CCC(CC#N)OC(=O)N[C@@H](C)c1cccc(NC(=O)Nc2ccc(-c3cnco3)c(OC)c2)c1 (stereo in doubt) [AVN-944] | > 100% |
| Oc1ncc(F)c(O)n1 [5-fluorouracil] | 95.4% |
| CN(C)CCNC(=O)c1cccn2c(=O)c3cc4ccccc4cc3nc12 [Bmh-21] | 91.9% |

Same assay, conditions: 100 nM; 72 h

| SMILES | cell viability |
| --- | --- |
| O=C(c1c2ccccc2cc2ccccc12)N1CCC(N2CCC[C@@H](C(=O)N3CCOCC3)C2)CC1 | 99.7% |
| c1ccc2c(c1)SCc1c-2[nH]c2ccccc12 | 94.1% |
| CCC(CC#N)OC(=O)N[C@@H](C)c1cccc(NC(=O)Nc2ccc(-c3cnco3)c(OC)c2)c1 (stereo in doubt) [AVN-944] | 87.7% |
| Oc1ncc(F)c(O)n1 [5-fluorouracil] | 87.6% |
| CN(C)CCNC(=O)c1cccn2c(=O)c3cc4ccccc4cc3nc12 [Bmh-21] | 97.3% |

Same assay, conditions: 1000 nM; 72 h

| SMILES | cell viability |
| --- | --- |
| O=C(c1c2ccccc2cc2ccccc12)N1CCC(N2CCC[C@@H](C(=O)N3CCOCC3)C2)CC1 | 80.6% |
| c1ccc2c(c1)SCc1c-2[nH]c2ccccc12 | 81.1% |
| CCC(CC#N)OC(=O)N[C@@H](C)c1cccc(NC(=O)Nc2ccc(-c3cnco3)c(OC)c2)c1 (stereo in doubt) [AVN-944] | > 100% |
| Oc1ncc(F)c(O)n1 [5-fluorouracil] | 95.5% |
| CN(C)CCNC(=O)c1cccn2c(=O)c3cc4ccccc4cc3nc12 [Bmh-21] | 55.1% |

Same assay, conditions: 10000 nM; 72 h

| SMILES | cell viability |
| --- | --- |
| O=C(c1c2ccccc2cc2ccccc12)N1CCC(N2CCC[C@@H](C(=O)N3CCOCC3)C2)CC1 | 96.9% |
| c1ccc2c(c1)SCc1c-2[nH]c2ccccc12 | 0.896% |
| CCC(CC#N)OC(=O)N[C@@H](C)c1cccc(NC(=O)Nc2ccc(-c3cnco3)c(OC)c2)c1 (stereo in doubt) [AVN-944] | 92.9% |
| Oc1ncc(F)c(O)n1 [5-fluorouracil] | 91.4% |
| CN(C)CCNC(=O)c1cccn2c(=O)c3cc4ccccc4cc3nc12 [Bmh-21] | 0.342% |

Test system: myeloid leukemia patient primary cells Pat.9
Assay: as above
Details: 1 nM; 72 h
In short: as §1

| SMILES | cell viability |
| --- | --- |
| O=C(c1c2ccccc2cc2ccccc12)N1CCC(N2CCC[C@@H](C(=O)N3CCOCC3)C2)CC1 | 63.1% |
| c1ccc2c(c1)SCc1c-2[nH]c2ccccc12 | 91.9% |
| CCC(CC#N)OC(=O)N[C@@H](C)c1cccc(NC(=O)Nc2ccc(-c3cnco3)c(OC)c2)c1 (stereo in doubt) [AVN-944] | 74.9% |
| Oc1ncc(F)c(O)n1 [5-fluorouracil] | 76.6% |
| CN(C)CCNC(=O)c1cccn2c(=O)c3cc4ccccc4cc3nc12 [Bmh-21] | 63% |

Same assay, conditions: 10 nM; 72 h

| SMILES | cell viability |
| --- | --- |
| O=C(c1c2ccccc2cc2ccccc12)N1CCC(N2CCC[C@@H](C(=O)N3CCOCC3)C2)CC1 | 88.4% |
| c1ccc2c(c1)SCc1c-2[nH]c2ccccc12 | 34.7% |
| CCC(CC#N)OC(=O)N[C@@H](C)c1cccc(NC(=O)Nc2ccc(-c3cnco3)c(OC)c2)c1 (stereo in doubt) [AVN-944] | 72.1% |
| Oc1ncc(F)c(O)n1 [5-fluorouracil] | 52.3% |
| CN(C)CCNC(=O)c1cccn2c(=O)c3cc4ccccc4cc3nc12 [Bmh-21] | 90.4% |

Same assay, conditions: 100 nM; 72 h

| SMILES | cell viability |
| --- | --- |
| O=C(c1c2ccccc2cc2ccccc12)N1CCC(N2CCC[C@@H](C(=O)N3CCOCC3)C2)CC1 | 77.5% |
| c1ccc2c(c1)SCc1c-2[nH]c2ccccc12 | 71% |
| CCC(CC#N)OC(=O)N[C@@H](C)c1cccc(NC(=O)Nc2ccc(-c3cnco3)c(OC)c2)c1 (stereo in doubt) [AVN-944] | 50% |
| Oc1ncc(F)c(O)n1 [5-fluorouracil] | 92.6% |
| CN(C)CCNC(=O)c1cccn2c(=O)c3cc4ccccc4cc3nc12 [Bmh-21] | 69.9% |

Same assay, conditions: 1000 nM; 72 h

| SMILES | cell viability |
| --- | --- |
| O=C(c1c2ccccc2cc2ccccc12)N1CCC(N2CCC[C@@H](C(=O)N3CCOCC3)C2)CC1 | 2.84% |
| c1ccc2c(c1)SCc1c-2[nH]c2ccccc12 | 2.02% |
| CCC(CC#N)OC(=O)N[C@@H](C)c1cccc(NC(=O)Nc2ccc(-c3cnco3)c(OC)c2)c1 (stereo in doubt) [AVN-944] | 15.9% |
| Oc1ncc(F)c(O)n1 [5-fluorouracil] | 71.4% |
| CN(C)CCNC(=O)c1cccn2c(=O)c3cc4ccccc4cc3nc12 [Bmh-21] | 3.68% |

Same assay, conditions: 10000 nM; 72 h

| SMILES | cell viability |
| --- | --- |
| O=C(c1c2ccccc2cc2ccccc12)N1CCC(N2CCC[C@@H](C(=O)N3CCOCC3)C2)CC1 | 71.4% |
| c1ccc2c(c1)SCc1c-2[nH]c2ccccc12 | 5.35% |
| CCC(CC#N)OC(=O)N[C@@H](C)c1cccc(NC(=O)Nc2ccc(-c3cnco3)c(OC)c2)c1 (stereo in doubt) [AVN-944] | 1.99% |
| Oc1ncc(F)c(O)n1 [5-fluorouracil] | 45.4% |
| CN(C)CCNC(=O)c1cccn2c(=O)c3cc4ccccc4cc3nc12 [Bmh-21] | 3.45% |

Test system: myeloid leukemia patient primary cells Pat.4
Assay: as above
Details: 1 nM; 72 h
In short: as §1

| SMILES | cell viability |
| --- | --- |
| O=C(c1c2ccccc2cc2ccccc12)N1CCC(N2CCC[C@@H](C(=O)N3CCOCC3)C2)CC1 | 92.6% |
| c1ccc2c(c1)SCc1c-2[nH]c2ccccc12 | 95.6% |
| CCC(CC#N)OC(=O)N[C@@H](C)c1cccc(NC(=O)Nc2ccc(-c3cnco3)c(OC)c2)c1 (stereo in doubt) [AVN-944] | 86% |
| Oc1ncc(F)c(O)n1 [5-fluorouracil] | 90.8% |
| CN(C)CCNC(=O)c1cccn2c(=O)c3cc4ccccc4cc3nc12 [Bmh-21] | 81.3% |

Same assay, conditions: 10 nM; 72 h

| SMILES | cell viability |
| --- | --- |
| O=C(c1c2ccccc2cc2ccccc12)N1CCC(N2CCC[C@@H](C(=O)N3CCOCC3)C2)CC1 | 95% |
| c1ccc2c(c1)SCc1c-2[nH]c2ccccc12 | 83.4% |
| CCC(CC#N)OC(=O)N[C@@H](C)c1cccc(NC(=O)Nc2ccc(-c3cnco3)c(OC)c2)c1 (stereo in doubt) [AVN-944] | 90.7% |
| Oc1ncc(F)c(O)n1 [5-fluorouracil] | 88.4% |
| CN(C)CCNC(=O)c1cccn2c(=O)c3cc4ccccc4cc3nc12 [Bmh-21] | 89.6% |

Same assay, conditions: 100 nM; 72 h

| SMILES | cell viability |
| --- | --- |
| O=C(c1c2ccccc2cc2ccccc12)N1CCC(N2CCC[C@@H](C(=O)N3CCOCC3)C2)CC1 | 90.2% |
| c1ccc2c(c1)SCc1c-2[nH]c2ccccc12 | 91% |
